Measured values taken from patent US7019029B2, “Skin whiteners containing hydroxytetronic acid derivatives” (priority 2000, dated 2006).

System: hyperpigmented skin areas of melasma patients
Assay: Study in melasma patients: topical treatment of hyperpigmented skin areas
Assay type: in vivo, human
Settings: oil-in-water emulsion containing about 10% compound, twice daily for 5 to 7 days, 4 melasma patients, observed in all the patients
Method: The efficacy of a preferred embodiment of the invention was tested in a clinical trial. An oil-in-water emulsion containing about 10% 4-diphenyl-2-hydroxytetronic acid was applied to various pigmented areas of the skin of 10 subjects twice daily. On normal pigmented skin types 2 and 3, visually apparent lightening was observed within 4 to 6 hours of application when compared to surrounding, untreated skin areas of the same subject. In another study, the hyperpigmented skin areas of 4 melasma patients were treated twice daily for 5 to 7 days.

In the case of O=C1OC(c2ccccc2)(c2ccccc2)C(O)=C1O [4-diphenyl-2-hydroxytetronic acid, 3,4-dihydroxy-5-diphenyl-2(5H)-furanone], the “lightening of the pigmented lesions” value is reported as “Significant lightening”.
